Source: PubChem BioAssay AID2060616 (Molecular Pharmacology Branch, DTP, NCI, 2025)

System: 377384-186-R-J1-PDC complex spheroid viability
Experiment: Anticancer human tumor 377384-186-R-J1-PDC patient-derived pancreatic carcinoma cell line growth inhibition [CLK]
Settings: for IC50: curve of first compound; for viability, T/C: stronger effect = lower value
Summary of the method: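 Patient-derived tumor cells grown as complex spheroids with HUVEC endothelial cells and mesenchymal stem cells, treated with drug combinations. Concentrations descend in half-log steps from near clinical Cmax, or from 10 microM if Cmax unknown.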
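Also: spheroids exposed to agents for 7 days before reading.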
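For viability, T/C in this document: luminescence signal used as a stand-in for viable cells.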

CC(C)CC(NC(=O)C(Cc1ccccc1)NC(=O)c1cnccn1)B(O)O (centres undefined) + CNC(=O)c1ccc(Nc2nc(OC3CCCC3)c3c(-c4ccc5nc(C)oc5c4)c[nH]c3n2)c(OC)c1
IC50 (second compound 0.0316 µM): 1.41 nM
IC50 (second compound 0.1 µM): < 0.949 nM
IC50 (second compound 0.316 µM): < 0.949 nM
IC50 (second compound 1 µM): < 0.949 nM
IC50 (second compound 3.16 µM): < 0.949 nM
IC50 (second compound 10 µM): < 0.949 nM
viability, T/C (second compound 0.0316 µM, first compound 0.000949 µM): 75.2%
viability, T/C (second compound 0.0316 µM, first compound 0.003 µM): 2.16%
viability, T/C (second compound 0.0316 µM, first compound 0.00949 µM): 0.37%
viability, T/C (second compound 0.0316 µM, first compound 0.03 µM): 0.17%
viability, T/C (second compound 0.0316 µM, first compound 0.0949 µM): 0.17%
viability, T/C (second compound 0.0316 µM, first compound 0.3 µM): 0.13%
viability, T/C (second compound 0.1 µM, first compound 0.000949 µM): 44%
viability, T/C (second compound 0.1 µM, first compound 0.003 µM): 1.4%
viability, T/C (second compound 0.1 µM, first compound 0.00949 µM): 0.25%
viability, T/C (second compound 0.1 µM, first compound 0.03 µM): 0.15%
viability, T/C (second compound 0.1 µM, first compound 0.0949 µM): 0.13%
viability, T/C (second compound 0.1 µM, first compound 0.3 µM): 0.15%
viability, T/C (second compound 0.316 µM, first compound 0.000949 µM): 21.4%
viability, T/C (second compound 0.316 µM, first compound 0.003 µM): 0.99%
viability, T/C (second compound 0.316 µM, first compound 0.00949 µM): 0.18%
viability, T/C (second compound 0.316 µM, first compound 0.03 µM): 0.14%
viability, T/C (second compound 0.316 µM, first compound 0.0949 µM): 0.15%
viability, T/C (second compound 0.316 µM, first compound 0.3 µM): 1.69%
viability, T/C (second compound 1 µM, first compound 0.000949 µM): 17.2%
viability, T/C (second compound 1 µM, first compound 0.003 µM): 0.98%
viability, T/C (second compound 1 µM, first compound 0.00949 µM): 0.28%
viability, T/C (second compound 1 µM, first compound 0.03 µM): 0.24%
viability, T/C (second compound 1 µM, first compound 0.0949 µM): 0.51%
viability, T/C (second compound 1 µM, first compound 0.3 µM): 0.35%
viability, T/C (second compound 3.16 µM, first compound 0.000949 µM): 14.8%
viability, T/C (second compound 3.16 µM, first compound 0.003 µM): 0.96%
viability, T/C (second compound 3.16 µM, first compound 0.00949 µM): 0.36%
viability, T/C (second compound 3.16 µM, first compound 0.03 µM): 0.23%
viability, T/C (second compound 3.16 µM, first compound 0.0949 µM): 0.31%
viability, T/C (second compound 3.16 µM, first compound 0.3 µM): 0.21%
viability, T/C (second compound 10 µM, first compound 0.000949 µM): 14.3%
viability, T/C (second compound 10 µM, first compound 0.003 µM): 0.81%
viability, T/C (second compound 10 µM, first compound 0.00949 µM): 0.71%
viability, T/C (second compound 10 µM, first compound 0.03 µM): 0.24%
viability, T/C (second compound 10 µM, first compound 0.0949 µM): 0.62%
viability, T/C (second compound 10 µM, first compound 0.3 µM): 0.3%

CC1(C)CCC(CN2CCN(c3ccc(C(=O)NS(=O)(=O)c4ccc(NCC5CCOCC5)c([N+](=O)[O-])c4)c(Oc4cnc5[nH]ccc5c4)c3)CC2)=C(c2ccc(Cl)cc2)C1 + CNC(=O)c1ccc(Nc2nc(OC3CCCC3)c3c(-c4ccc5nc(C)oc5c4)c[nH]c3n2)c(OC)c1
IC50 (second compound 0.0316 µM): > 10000 nM
IC50 (second compound 0.1 µM): > 10000 nM
IC50 (second compound 0.316 µM): < 31.6 nM
IC50 (second compound 1 µM): < 31.6 nM
IC50 (second compound 3.16 µM): < 31.6 nM
IC50 (second compound 10 µM): < 31.6 nM
viability, T/C (second compound 0.0316 µM, first compound 0.0316 µM): 105%
viability, T/C (second compound 0.0316 µM, first compound 0.1 µM): 93.2%
viability, T/C (second compound 0.0316 µM, first compound 0.316 µM): 96.9%
viability, T/C (second compound 0.0316 µM, first compound 1 µM): 109%
viability, T/C (second compound 0.0316 µM, first compound 3.16 µM): 82.1%
viability, T/C (second compound 0.0316 µM, first compound 10 µM): 104%
viability, T/C (second compound 0.1 µM, first compound 0.0316 µM): 59.8%
viability, T/C (second compound 0.1 µM, first compound 0.1 µM): 57.4%
viability, T/C (second compound 0.1 µM, first compound 0.316 µM): 49.3%
viability, T/C (second compound 0.1 µM, first compound 1 µM): 56.6%
viability, T/C (second compound 0.1 µM, first compound 3.16 µM): 36.4%
viability, T/C (second compound 0.1 µM, first compound 10 µM): 59.8%
viability, T/C (second compound 0.316 µM, first compound 0.0316 µM): 20.4%
viability, T/C (second compound 0.316 µM, first compound 0.1 µM): 21.6%
viability, T/C (second compound 0.316 µM, first compound 0.316 µM): 19.7%
viability, T/C (second compound 0.316 µM, first compound 1 µM): 19%
viability, T/C (second compound 0.316 µM, first compound 3.16 µM): 17.6%
viability, T/C (second compound 0.316 µM, first compound 10 µM): 21.1%
viability, T/C (second compound 1 µM, first compound 0.0316 µM): 23.3%
viability, T/C (second compound 1 µM, first compound 0.1 µM): 22.5%
viability, T/C (second compound 1 µM, first compound 0.316 µM): 18.2%
viability, T/C (second compound 1 µM, first compound 1 µM): 19.1%
viability, T/C (second compound 1 µM, first compound 3.16 µM): 19.3%
viability, T/C (second compound 1 µM, first compound 10 µM): 21.6%
viability, T/C (second compound 3.16 µM, first compound 0.0316 µM): 20.2%
viability, T/C (second compound 3.16 µM, first compound 0.1 µM): 20.7%
viability, T/C (second compound 3.16 µM, first compound 0.316 µM): 20%
viability, T/C (second compound 3.16 µM, first compound 1 µM): 18.8%
viability, T/C (second compound 3.16 µM, first compound 3.16 µM): 21.9%
viability, T/C (second compound 3.16 µM, first compound 10 µM): 20.9%
viability, T/C (second compound 10 µM, first compound 0.0316 µM): 20.2%
viability, T/C (second compound 10 µM, first compound 0.1 µM): 21.6%
viability, T/C (second compound 10 µM, first compound 0.316 µM): 21.2%
viability, T/C (second compound 10 µM, first compound 1 µM): 20.1%
viability, T/C (second compound 10 µM, first compound 3.16 µM): 19.2%
viability, T/C (second compound 10 µM, first compound 10 µM): 21.3%
